Source: PubChem BioAssay (NCI)
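Tested at 5 concentrations; 48 h exposure; 96-well plates; endpoints linearly interpolated, else capped at highest concentration. The concentration for full growth arrest is given as TGI.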

What was measured:
Test in all cases: inhibition of tumour cell growth, NCI panel, 48 h
[1] = system: HOP-62 NSCLC
[2] = system: EKVX NSCLC
[3] = system: SF-295 CNS
[4] = system: 786-0 renal
[5] = system: SF-268 CNS
[6] = system: TK-10 renal
[7] = system: UACC-62 melanoma
[8] = system: HT29 colon
[9] = system: OVCAR-5 ovarian
[10] = system: MOLT-4 leukemia
[11] = system: MDA-N
[12] = system: PC-3 prostate
[13] = system: U251 CNS
[14] = system: CCRF-CEM leukemia
[15] = system: MDA-MB-231 breast
[16] = system: HOP-92 NSCLC
[17] = system: NCI-H226 lung
[18] = system: HCC-2998 colon
[19] = system: SK-MEL-2 melanoma
[20] = system: M14 melanoma

Compound	TGI [1] [µM]	TGI [2] [µM]	TGI [3] [µM]	TGI [4] [µM]	TGI [5] [µM]	TGI [6] [µM]	TGI [7] [µM]	TGI [8] [µM]	TGI [9] [µM]	TGI [10] [µM]	TGI [11] [µM]	TGI [12] [µM]	TGI [13] [µM]	TGI [14] [µM]	TGI [15] [µM]	TGI [16] [µM]	TGI [17] [µM]	TGI [18] [µM]	TGI [19] [µM]	TGI [20] [µM]
Oc1cccc2cc(Br)cnc12	> 100	99	> 100	> 100	> 33.9	> 100	29.2	> 73.1	> 100	14.9	> 100	> 100	> 100	7.81	> 47.1	74.2	> 100	96.9	> 100	51.8
CCN(CC)/[N+]([O-])=N/OCOC(C)=O	> 100	> 100	> 100	> 100	> 100	> 100	> 100	> 100	> 100	> 100	> 100	> 100	> 100	> 100	> 100	> 100	> 100	> 100	> 100	> 100
O=c1oc2ccc(Cl)cc2cc1-c1cn2ccccc2n1	16.1	> 100	24.5	18	99.3	35.3	38.2	> 50.6	> 100	> 100	> 100	> 100	> 40.2	> 100	> 52.7	> 73.3	> 94.8	> 100	> 100	> 100
CC(C)(C)OC(=O)c1ccc(NCC2=CC(=O)C=CC2=O)cc1	> 61.8	28.8	50.5	22	24.3	21.3	26	35	32.5	4.38	25.3	24.4	27.1	5.35	21.6	4.4	40.5	36.6	31.8	17.6
O=c1c2cc(Cl)ccc2[nH]c2cc(O)cc(O)c12	> 10	> 10	> 10	> 10	> 10	> 10	> 10	> 10	> 10	> 10	> 10	> 10	> 10	> 10	> 10	> 10	> 10	> 10	> 10	> 10
O=C(O)C1(Cc2ccc3c(c2)CCC3)Cc2ccccc2C1	> 100	> 100	> 100	> 100	> 100	> 100	> 100	> 100	> 100	> 100	> 100	> 100	> 100	> 100	> 100	> 100	> 100	> 100	> 100	> 100
C=C(C)C(O)C(O)C[C@@H](C)C1CC[C@]23C[C@]12CCC1[C@@]2(C)CCC(OC(C)=O)C(C)(C)C2CC(OC2OC(CO)C(O)C(O)C2O)[C@]13C (stereo partly drawn)	31.9	> 100	36.7	35.1	33	56.2	31.8	33.6	45.9	38.3	31.1	34.7	29.1	31.2	28.2	25.7	39.9	29.1	30.6	28.4
C=CC(Br)(CBr)CCC(Br)C(C)(C)Cl (stereo not drawn)	7.87	26.8	3.6	5.64	4.51	6.33	17.3	2.9	14.5	4.05	8.34	9.1	2.92	7.45	6.95	4.32	52.9	12.8	29.5	14.6
N#Cc1nc(-c2ccccn2)oc1N	> 100	> 100	> 100	> 100	> 100	> 100	> 100	> 100	> 100	> 100	> 100	> 100	> 100	> 100	> 100	> 100	> 100	> 100	> 100	–
O=C(CCCl)NNC1=NCCCCN1	> 100	> 100	> 100	> 100	> 100	> 100	> 100	> 100	> 100	> 100	> 100	> 100	> 100	> 100	> 100	> 100	> 100	> 100	> 100	> 100
COc1ccc2c(c1)CCCN2S(=O)(=O)c1ccccc1[N+](=O)[O-]	> 100	> 91.9	> 100	> 100	> 96.8	97.1	> 97.5	77.2	> 100	67.3	26.7	> 100	> 92	80.9	> 100	97.8	> 96.2	84.5	72.4	> 92.8
CN(C)CC1CCCCCCCCCC(CN(C)C)C1=O (stereo not drawn)	> 62.4	> 54.2	> 59.7	> 40.6	> 53.9	> 53.7	> 44.1	> 43.8	> 63.6	> 25.7	30.9	19.4	> 54.5	> 26.4	84.6	> 48.4	> 60.3	> 100	> 67.4	> 49.1
CCCCCCOc1ccc(C(=O)N(C)O)cc1	> 83.5	> 100	> 62.4	55.7	55.7	> 100	60.9	27.5	> 100	50.4	> 100	98	> 100	23.5	> 100	> 100	59.5	99	> 100	39.3
O=C1c2ccccc2CC12Cc1ccccc1C2	> 100	78.3	> 100	> 100	> 100	97.4	> 100	70.5	> 100	> 100	> 100	> 100	> 100	> 100	> 100	91.9	> 100	70.3	> 100	> 100
C=C1C(=O)OC2CC(=C)C3CC=C(C)C3CC12 (stereo not drawn)	> 100	> 100	> 100	31.3	> 100	34.4	25.3	28.5	> 100	46.8	30.6	28.4	29.6	> 100	63.7	28.7	43	43.3	26.5	40.9
O=c1c2cc(I)ccc2nc(SCc2n[nH]c(=S)o2)n1Cc1ccccc1	41	40.8	40	30.3	32.9	37.7	25.4	66.2	52.4	65.3	32	31.3	31.4	43.8	33.3	27.9	27.6	35.3	30.4	43.6
CCOC(=O)/C=C/[C@H](O)[C@@H](O)/C=C/C(=O)OCC	85	58.8	> 100	> 100	> 100	> 100	57.4	36.9	> 100	41.5	> 100	> 100	> 100	32.6	> 100	33.5	> 100	> 100	> 100	–
NC(=O)C(=O)C(c1ccccc1)S(=O)(=O)Cc1ccccc1 (stereo not drawn)	> 100	> 100	> 100	> 100	> 100	> 100	> 100	> 100	> 100	> 100	> 100	> 100	> 100	> 100	> 100	> 100	> 100	> 100	> 100	> 100
CN1C=Cc2nccc3cc4c(c1c23)OCO4	32.7	13.8	10.1	24.8	11.3	35.4	5.36	27.5	66.3	> 93	8.62	40.9	32.4	> 100	29	> 68.5	43.5	30.4	11.3	11.7
